Patent publication US7332522B2, “Liver function protecting or ameliorating agent” (Kyowa Hakko Kogyo Co., Ltd., priority 2001, dated 2008)
Read-outs that look alike come from different tables or passages of the source.

Experiments:
[1] = tested on: rat liver microsome; conditions: cited from earlier work
[2] = tested on: mast cells; conditions: at 100 μM; induced by compound 48/80 or calcium ionophore A23187; cited from earlier work
[3] = tested on: hyaluronidase; conditions: cited from earlier work
[4] = tested on: leukocyte; conditions: in vitro; cited from earlier work
[5] = iron rhodanate method; cited from earlier work
[6] = tested on: Galactosamine-induced Rat Hepatopathy; experiment: Suppression of galactosamine-induced rat hepatopathy, GPT level in serum; format: in vivo, Male Wistar white rats; conditions: 15 days, serum 22 h after galactosamine 350 mg/kg i.p., relative to Comparative Example 1 feed = 100%, average ± standard error
Description: Male Wistar white rats (150±20 g, purchased from Japan SLC) were kept for at least 3 days under a fixed condition (temperature: 24±2° C., humidity: 60±5%, light and dark interval: 12 hours) for adaptation, and then fed respectively with the feeds produced in Examples 4-8 and the feed produced in Comparative Example 1 for 15 days. On the 14th day, 350 mg/kg of galactosamine (dissolved in physiological saline at a concentration of 35 mg/ml, and adjusted to pH 7.1) was intraperitoneally administered to each rat. Twenty-two hours after the administration of galactosamine, each of the rats was subjected to laparotomy under anesthesia with Nembutal and blood was collected.
Using thus obtained blood samples, blood GPT activity was measured as an indication of a liver function in the following manner. The collected blood was coagulated and separated by centrifugation to obtain a serum. The GPT level in the serum was measured using Fuji Drychem System 3500 (manufactured by Fuji Photo Film Co., Ltd.) with thus obtained serum. The GPT activity of each test group was calculated as the relative value (%) from the value obtained for each Example based on the value obtained for the feed in Comparative Example 1 expressed as 100%. The value is expressed in terms of average value±standard error and the statistical test of significance was carried out by Student's T-test.

[7] = tested on: rat skin passive anaphylaxis; conditions: oral administration, cited from earlier work
[8] = 200 mg/kg; cited from earlier work
[9] = tested on: rat gastric ulcer induced by ethanol hydrochloride; conditions: 75 mg/kg, oral administration; cited from earlier work
[10] = tested on: Staphylococcus aureus; conditions: at 1000 ppm; cited from earlier work
[11] = tested on: Staphylococcus epidemidis; conditions: at 1000 ppm; cited from earlier work

O=C1OC(c2ccc(O)cc2)Cc2cccc(O)c21 (stereo not shown) [hydrangenol]
suppressive activity on NADPH dependent lipid peroxidation [1]: weak suppressive activity | suppression of release of histamine from mast cells [2]: not suppressed | hyaluronidase inhibitory activity [3]: hyaluronidase inhibitory activity | concentration active in differentiation-inducing activity on leukocyte [4]: 300 µM | suppressive activity on linoleic acid oxidation [5]: weak suppressive activity | GPT activity (%) ([6]; feed of Example 7, hydrangenol 0.324% in feed): 64.6 ± 116.5% | GPT activity (%) ([6]; feed of Example 8, hydrangenol 0.108% in feed): 27.8 ± 45.4% | suppression of rat skin passive anaphylaxis ([7]; 500 mg/kg): suppress | cholagogic activity [8]: do not exhibit this activity | suppression of rat gastric ulcer induced by ethanol hydrochloride [9]: do not suppress

O=C1OC(c2ccc(O)cc2)Cc2cccc(OC3OC(CO)C(O)C(O)C3O)c21 (stereo not shown) [hydrangenol 8-O-glucoside]
suppression of release of histamine from mast cells [2]: not suppressed | suppression of rat skin passive anaphylaxis ([7]; 300 and 500 mg/kg): suppress

O=c1oc(-c2ccc(O)c(O)c2)cc2cccc(O)c12 [thunberginol A]
concentration active in differentiation-inducing activity on leukocyte [4]: 100 µM | suppression of rat skin passive anaphylaxis ([7]; 300 and 500 mg/kg): suppress

COc1ccc([C@H]2Cc3cccc(O)c3C(=O)O2)cc1O [phyllodulcin]
suppressive activity on NADPH dependent lipid peroxidation [1]: suppressive activity at a similar level to α-tocopherol | suppression of release of histamine from mast cells [2]: not suppressed | proliferation suppressive activity [10]: proliferation suppressive activity | concentration active in differentiation-inducing activity on leukocyte [4]: 300 µM | suppressive activity on linoleic acid oxidation [5]: more potent suppressive activity than α-tocopherol or BHA | proliferation suppressive activity [11]: proliferation suppressive activity | GPT activity (%) ([6]; feed of Example 4, phyllodulcin 0.366% in feed): 11.8 ± 18.0% | GPT activity (%) ([6]; feed of Example 5, phyllodulcin 0.122% in feed): 54.7 ± 32.2% | GPT activity (%) ([6]; feed of Example 6, phyllodulcin 0.037% in feed): 52.7 ± 59.9% | suppression of rat skin passive anaphylaxis ([7]; 300 and 500 mg/kg): does not suppress | cholagogic activity [8]: do not exhibit this activity | suppression of rat gastric ulcer induced by ethanol hydrochloride [9]: do not suppress

O=C1O/C(=C\c2ccc(O)c(O)c2)c2cccc(O)c21 [thunberginol F, reference compound]
suppression of rat skin passive anaphylaxis ([7]; 300 and 500 mg/kg): suppress

COc1ccc(C2Cc3cccc(OC4OC(CO)C(O)C(O)C4O)c3C(=O)O2)cc1O (stereo not shown) [phyllodulcin 8-O-glucoside]
suppression of release of histamine from mast cells [2]: not suppressed | suppression of rat skin passive anaphylaxis ([7]; 300 and 500 mg/kg): suppress

O=C1O[C@@H]([C@@H](O)c2ccc(O)cc2)c2cccc(O)c21 [hydramacrophyllol B, reference compound]
suppression of release of histamine from mast cells [2]: not suppressed

O=C1O[C@H]([C@@H](O)c2ccc(O)cc2)c2cccc(O)c21 [hydramacrophyllol A, reference compound]
suppression of release of histamine from mast cells [2]: not suppressed
